Experimental data as given in patent US20250215039A1, “NUCLEOSIDES FOR TREATING CANCER” (PRIMEFOUR THERAPEUTICS, INC., priority 2022, published 2025).
pIC50: −log10 of the molar value. Read-outs that look alike come from different tables or passages of the source.

System: cancer cell lines
Assay: Cancer cell proliferation activity (CellTiterGlo, 72 h)
Assay type: cell-based
Conditions: 72 h, 72 h, read-out: IC50 cell proliferation
In short: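 Cells seeded overnight at 37 °C, then dosed with compound at 0.1% final DMSO and incubated 72 h at 37 °C (5% or 10% CO2 by medium).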

SMILES: C[C@]1(CO)O[C@@H](n2ccc(N)nc2=O)[C@@H](O)[C@@H]1O [Cpd. No. 193, 4-amino-1-((2R,3S,4S,5R)-3,4-dihydroxy-5-(hydroxymethyl)-5-methyltetrahydrofuran-2-yl)pyrimidin-2(1H)-one]
- pIC50 (5637 (bladder)): < 4.30
- pIC50 (CLS439 (bladder)): < 4.30
- pIC50 (HS729 (muscle)): 5.23
- pIC50 (J82 (bladder)): 5.26
- pIC50 (JAR (placenta)): < 4.30
- pIC50 (MT3 (breast)): 6.24
- pIC50 (PANCI (pancreas)): 5.44
- pIC50 (PC3 (prostate)): 5.69
- pIC50 (RD (muscle)): < 4.30
- pIC50 (T24 (bladder)): 5.63
- pIC50 (Homo sapiens, 22Rv1, 72 h, 22RV1 (prostate)): 5.24
- pIC50 (Homo sapiens, 786-0, 72 h, 786O (kidney)): 5.02
- pIC50 (Homo sapiens, A204, 72 h, A204 (muscle)): 7.22
- pIC50 (Homo sapiens, A549, 72 h, A549 (lung)): 5.63
- pIC50 (Homo sapiens, A673, 72 h, A673 (bone)): 5.49
- pIC50 (Homo sapiens, A2780, 72 h, A2780 (ovary)): 5.46
- pIC50 (Homo sapiens, A-375, 72 h, A375 (skin)): 5.44
- pIC50 (Homo sapiens, A-431, 72 h, A431 (skin)): 5.60
- pIC50 (Homo sapiens, ACHN, ACHN (kidney)): 5.55
- pIC50 (Homo sapiens, ASPC1, 72 h, ASPC1 (pancreas)): < 4.30
- pIC50 (Homo sapiens, BT-20, 72 h, BT20 (breast)): 5.51
- pIC50 (Homo sapiens, BXPC-3, 72 h, BXPC3 (pancreas)): 5.37
- pIC50 (Homo sapiens, C-33-A, C33A (endometrial)): 5.84
- pIC50 (Homo sapiens, CAKI-1, 72 h, CAKI1 (kidney)): 5.80
- pIC50 (Homo sapiens, COLO 205, 72 h, COLO205 (colon)): 5.80
- pIC50 (Homo sapiens, COLO-678, 72 h, COLO678 (colon)): < 4.30
- pIC50 (Homo sapiens, Ca-Ski, CASKI (endometrial)): 5.51
- pIC50 (Homo sapiens, Caco-2, 72 h, CACO2 (colon)): < 4.30
- pIC50 (Homo sapiens, Calu-6, 72 h, CALU6 (lung)): 5.42
- pIC50 (Homo sapiens, DLD-1, 72 h, DLD1 (colon)): 5.40
- pIC50 (Homo sapiens, DU-145, 72 h, DU145 (prostate)): 5.85
- pIC50 (Homo sapiens, EFO-21, 72 h, EFO21 (ovary)): 5.34
- pIC50 (Homo sapiens, EJ-28, 72 h, EJ28 (bladder)): 5.35
- pIC50 (Homo sapiens, Granta-519, 72 h, GRANTA-519 (hematological)): 6.05
- pIC50 (Homo sapiens, HCT-15, 72 h, HCT15 (colon)): 5.67
- pIC50 (Homo sapiens, HCT-116, 72 h, HCT116 (colon)): 5.55
- pIC50 (Homo sapiens, HEK293, 72 h, HEK293 (kidney)): < 4.30
- pIC50 (Homo sapiens, HL-60, 72 h, HL-60 (hematological)): 5.79
- pIC50 (Homo sapiens, HT-29, 72 h, HT29 (colon)): < 4.30
- pIC50 (Homo sapiens, HT-1080, 72 h, HT1080 (connective tissue)): 5.56
- pIC50 (Homo sapiens, HeLa, HELA (endometrial)): < 4.30
- pIC50 (Homo sapiens, HepG2, 72 h, HEPG2 (liver)): 5.45
- pIC50 (Homo sapiens, Hs-578T, HS578T (breast)): < 4.30
- pIC50 (Homo sapiens, IGROV-1, 72 h, IGROV1 (ovary)): 5.67
- pIC50 (Homo sapiens, IMR-90, 72 h, IMR90 (lung)): 5.38
- pIC50 (Homo sapiens, JEG-3, 72 h, JEG3 (placenta)): < 4.30
- pIC50 (Homo sapiens, JIMT-1, 72 h, JIMT1 (breast)): 5.55
- pIC50 (Homo sapiens, K562, 72 h, K-562 (hematological)): < 4.30
- pIC50 (Homo sapiens, Kasumi 1, 72 h, KASUMI-1 (hematological)): 6.43
- pIC50 (Homo sapiens, L-363, 72 h, L-363 (hematological)): < 4.30
- pIC50 (Homo sapiens, LoVo, LOVO (colon)): 5.63
- pIC50 (Homo sapiens, MCF7, 72 h, MCF7 (breast)): < 4.30
- pIC50 (Homo sapiens, MDA-MB-231, 72 h, MDAMB231 (breast)): 5.84
- pIC50 (Homo sapiens, MDA-MB-435, 72 h, MDAMB435 (skin)): 5.32
- pIC50 (Homo sapiens, MDA-MB-436, 72 h, MDAMB436 (breast)): < 4.30
- pIC50 (Homo sapiens, MDA-MB-468, 72 h, MDAMB468 (breast)): < 4.30
- pIC50 (Homo sapiens, MG-63, 72 h, MG63 (bone)): < 4.30
- pIC50 (Homo sapiens, MHH-ES-1, 72 h, MHHES1 (bone)): 5.65
- pIC50 (Homo sapiens, MIA PaCa-2, 72 h, MIAPACA2 (pancreas)): < 4.30
- pIC50 (Homo sapiens, MINO, MINO (hematological)): 6.60
- pIC50 (Homo sapiens, MV4-11, 72 h, MV4-11 (hematological)): 5.32
- pIC50 (Homo sapiens, NCI-H23, 72 h, NCI-H23 (lung)): 5.10
- pIC50 (Homo sapiens, NCI-H82, 72 h, NCIH82 (lung)): 5.47
- pIC50 (Homo sapiens, NCI-H292, 72 h, NCIH292 (lung)): 5.24
- pIC50 (Homo sapiens, NCI-H460, 72 h, NCIH460 (lung)): 5.55
- pIC50 (Homo sapiens, OVCAR-3, 72 h, OVCAR3 (ovary)): 5.56
- pIC50 (Homo sapiens, OVCAR-4, 72 h, OVCAR4 (ovary)): < 4.30
- pIC50 (Homo sapiens, PLC-PRF-5, 72 h, PLCPRF5 (liver)): < 4.30
- pIC50 (Homo sapiens, Panc1005, 72 h, PANC1005 (pancreas)): < 4.30
- pIC50 (Homo sapiens, Ramos, RAMOS (hematological)): 5.52
- pIC50 (Homo sapiens, SAOS-2, 72 h, SAOS2 (bone)): 5.95
- pIC50 (Homo sapiens, SF-268, 72 h, SF268 (brain)): 5.56
- pIC50 (Homo sapiens, SF-295, 72 h, SF295 (brain)): < 4.30
- pIC50 (Homo sapiens, SK-BR-3, 72 h, SKBR3 (breast)): 5.46
- pIC50 (Homo sapiens, SK-HEP1, 72 h, SKHEP1 (liver)): 5.54
- pIC50 (Homo sapiens, SK-LMS-1, 72 h, SKLMS1 (uterus)): < 4.30
- pIC50 (Homo sapiens, SK-MEL-5, 72 h, SKMEL5 (skin; SKMELS [sic] in Table 9E)): < 4.30
- pIC50 (Homo sapiens, SK-MEL-28, 72 h, SKMEL28 (skin)): < 4.30
- pIC50 (Homo sapiens, SK-N-AS, SKNAS (brain)): 5.22
- pIC50 (Homo sapiens, SK-N-SH, SKNSH (brain)): 5.32
- pIC50 (Homo sapiens, SK-OV-3, 72 h, SKOV3 (ovary)): < 4.30
- pIC50 (Homo sapiens, SNB-75, 72 h, SNB75 (brain)): 5.35
- pIC50 (Homo sapiens, SU-DHL10, 72 h, SU-DHL-10 (hematological)): 5.49
- pIC50 (Homo sapiens, SU-DHL-6, 72 h, SU-DHL-6 (hematological)): 5.53
- pIC50 (Homo sapiens, SW-620, 72 h, SW620 (colon)): < 4.30
- pIC50 (Homo sapiens, TE-671, 72 h, TE671 (muscle)): 5.31
- pIC50 (Homo sapiens, THP-1, 72 h, THP-1 (hematological)): 5.53
- pIC50 (Homo sapiens, U2OS, U20S (bone; U2OS in Table 9E)): < 4.30
- pIC50 (Homo sapiens, U-87 MG, U87MG (brain)): 5.97
- pIC50 (Homo sapiens, UMUC3, 72 h, UMUC3 (bladder)): 5.38
- pIC50 (Homo sapiens, UO-31, 72 h, UO31 (kidney)): 5.41
- pIC50 (Homo sapiens, WSU-NHL, WSU-NHL (hematological)): 6.31
- pIC50 (NCI-H358M, NCIH358M (lung)): 5.60
- pIC50 (PBMC, PBMC (hematological)): < 4.30
- pIC50 (RD-ES, RDES (bone)): < 4.30
